Measurements taken from patent US20210139477A1, “ALK5 INHIBITORS, CONJUGATES, AND USES THEREOF” (Silverback Therapeutics, Inc., priority 2019, published 2021).

Test system: TGFb/SMAD Signaling Pathway SBE reporter cell line
Assay: TGFb reporter assay (TGFb/SMAD Signaling Pathway SBE luciferase reporter cell line)
Assay type: cell-based
Details: 5-6 h preincubation, then TGFb, 18 h, luciferase luminescence
Procedure: TGFβ/SMAD Signaling Pathway SBE reporter cell line was obtained from BPS Bioscience. Cells were passed, expanded, and stored in liquid nitrogen as per the supplier's instructions with the exception that growth media is changed to DMEM-C with Geneticin (DMEM supplemented with 10% fetal bovine serum, 1×NEAA, 1 mM Pyruvate, 2 mM glutamine, 50 μg/mL penicillin, 50 U/mL streptomycin and 400 μg/mL of Geneticin). The assay media was MEM supplemented with 0.5% fetal bovine serum, 1×NEAA, 1 mM Pyruvate, 50 μg/mL penicillin and 50 U/mL streptomycin.
TGFb/SMAD Signaling Pathway SBE reporter cell line was obtained from BPS Bioscience. Cells were passed/expanded/stored in liquid nitrogen per supplier's instruction with the exception that growth media was changed to DMEM-C with Geneticin (DMEM supplemented with 10% fetal bovine serum, IX NEAA, 1 mM Pyruvate, 2 mM glutamine, 50 μg/mL penicillin, 50 U/mL streptomycin and 400 ug/mL of Geneticin). The assay media was MEM supplemented with 0.5% fetal bovine serum, IX NEAA, 1 mM Pyruvate, 50 μg/mL penicillin and 50 U/mL streptomycin.
Reporter cells were harvested from the tissue culture flasks by incubation in small quantity of Versene at room temperature for three to five minutes after the media in the flask was removed and cells rinsed with PBS. Cells were counted and diluted in the assay media at 0.8×10^6 cells/mL then 50 uL/well were added to 96-well assay plate. Test samples (at desired concentrations diluted in assay media) were added to assay plate containing the 50 uL/well of cells (or media only), 50 uL per well, and incubated for 5-6 hours at 37° C. in a 5% CO2 humidified incubator. After that time, 15 uL of TGFb diluted to 12.5 ng/mL in the assay media was added to the plate. Controls included TGFb titration (from 25 to 0 ng/mL) without inhibitors, and media only (without cells, inhibitor or TGFb). Plates were incubated at 37° C. in a […] humidified incubator for 18 h. Luciferase substrate solution was subsequently added at 75 uL per well, incubated in dark with shaking at room temperature for 10 min, and luminescence was measured using a luminometer.

| Structure (SMILES) | EC50 |
| --- | --- |
| Cc1cccc(-c2nc(CNCc3ccccc3C)[nH]c2-c2ccc3nccnc3c2)n1 [Compound 86] | 0.1 to 10 nM |
| Cc1cccc(-c2nc(CNCc3ccccc3)[nH]c2-c2ccnc3ccccc23)n1 [Compound 74] | 100 to 1000 nM |
| Cc1cccc(-c2nc(CNCCc3c(F)cccc3F)[nH]c2-c2ccc3ncnn3c2)n1 [Compound 60] | 0.1 to 10 nM |
| Cc1cccc(-c2nc(CNCc3cccc(Cl)c3C)[nH]c2-c2ccc3ncnn3c2)n1 [Compound 47] | 0.1 to 10 nM |
| Cc1cccc(-c2nc(CN[C@H](C)c3ccccc3)[nH]c2-c2ccc3ncnn3c2)n1 [Compound 11] | 10 to 100 nM |
| COc1ccccc1CNCc1nc(-c2cccc(C)n2)c(-c2ccc3ncnn3c2)[nH]1 [Compound 17] | 10 to 100 nM |
| Cc1cccc(-c2nc(CNCc3cc(Cl)ccc3Cl)[nH]c2-c2ccc3ncnn3c2)n1 [Compound 5] | 10 to 100 nM |
| Cc1cccc(-c2nc(CNCc3cccc(Cl)c3)[nH]c2-c2ccc3ncnn3c2)n1 [Compound 2] | 10 to 100 nM |
| Cc1cccc(-c2nc(CNCc3cccc(-c4ccccc4)c3)[nH]c2-c2ccc3ncnn3c2)n1 [Compound 51] | 100 to 1000 nM |
| Cc1cccc(-c2nc(CNCCc3ccccc3)[nH]c2-c2ccc3ncnn3c2)n1 [Compound 52] | 0.1 to 10 nM |
| Cc1cccc(CNCc2nc(-c3cccc(C)n3)c(-c3ccc4ncnn4c3)[nH]2)c1 [Compound 50] | 10 to 100 nM |
| Cc1cccc(-c2nc(CNCc3ccccc3-c3ccc(F)c(F)c3)[nH]c2-c2ccc3ncnn3c2)n1 [Compound 36] | 10 to 100 nM |
| Cc1cccc(-c2nc(CNCc3ccccc3-c3ccccc3)[nH]c2-c2ccc3ncccc3n2)n1 [Compound 68] | 10 to 100 nM |
| Cc1cccc(-c2nc(CNCc3ccccc3-c3cccc(F)c3)[nH]c2-c2ccc3ncnn3c2)n1 [Compound 37] | 10 to 100 nM |
| COC(=O)[C@H](NCc1nc(-c2cccc(C)n2)c(-c2ccc3ncnn3c2)[nH]1)c1ccccc1 [Compound 15] | 100 to 1000 nM |
| Cc1cccc(-c2nc(CNCc3ccccc3C(C)C)[nH]c2-c2ccc3ncnn3c2)n1 [Compound 23] | 0.1 to 10 nM |
| COc1ccccc1CCNCc1nc(-c2cccc(C)n2)c(-c2ccc3ncccc3n2)[nH]1 [Compound 84] | 0.1 to 10 nM |

| Structure (SMILES) | EC50 |
| --- | --- |
| Cc1cccc(-c2nc(CNCc3ccccc3)[nH]c2-c2ccc3nccnc3c2)n1 [Compound 77] | 0.1 to 10 nM |
| Cc1cccc(-c2nc(CNCc3cccc(Oc4ccncc4)c3)[nH]c2-c2ccc3ncnn3c2)n1 [Compound 58] | 10 to 100 nM |
| Cc1cccc(-c2nc(CNCc3ccccc3C(O)C(F)(F)F)[nH]c2-c2ccc3ncnn3c2)n1 (stereo not drawn) [Compound 28] | 0.1 to 10 nM |
| Cc1cccc(-c2nc(CNCc3ccc(Cl)cc3)[nH]c2-c2ccc3ncnn3c2)n1 [Compound 3] | 10 to 100 nM |
| Cc1cccc(-c2nc(CNCc3ccccc3)[nH]c2-c2ccccn2)n1 [Compound 75] | 100 to 1000 nM |
| COc1cccc(CNCc2nc(-c3cccc(C)n3)c(-c3ccc4ncnn4c3)[nH]2)c1 [Compound 7] | 0.1 to 10 nM |
| COc1ccc(OC)c(CNCc2nc(-c3cccc(C)n3)c(-c3ccc4ncnn4c3)[nH]2)c1 [Compound 9] | 10 to 100 nM |
| Cc1cccc(-c2nc(CNCc3ccccc3C3CCCC3)[nH]c2-c2ccc3ncnn3c2)n1 [Compound 44] | 10 to 100 nM |
| Cc1cccc(-c2nc(CNCc3ccccc3-c3ccccc3)[nH]c2-c2ccc3ncccc3c2)n1 [Compound 91] | 10 to 100 nM |
| Cc1cccc(-c2nc(CNCCc3c(F)cccc3F)[nH]c2-c2ccc3nccnc3c2)n1 [Compound 82] | 0.1 to 10 nM |
| Cc1cccc(-c2nc(CNCc3c(Cl)cccc3Cl)[nH]c2-c2ccc3ncnn3c2)n1 [Compound 6] | 0.1 to 10 nM |
| Cc1cccc(-c2nc(CNCCc3c(F)cccc3F)[nH]c2-c2ccncc2)n1 [Compound 80] | 100 to 1000 nM |
| Cc1cccc(-c2nc(CNCc3cccc(Oc4cccnc4)c3)[nH]c2-c2ccc3ncnn3c2)n1 [Compound 57] | 10 to 100 nM |
| Cc1cccc(-c2nc(CNCc3ccccc3-c3ccc(F)cc3)[nH]c2-c2ccc3ncnn3c2)n1 [Compound 35] | 0.1 to 10 nM |
| Cc1cccc(-c2nc(CNCCN(C)c3ccccc3)[nH]c2-c2ccc3ncccc3n2)n1 [Compound 85] | 0.1 to 10 nM |
| Cc1cccc(-c2nc(CNCc3ccccc3-c3cccc(CNC(=O)OC(C)(C)C)c3)[nH]c2-c2ccc3ncnn3c2)n1 [Compound 30] | 100 to 1000 nM |
| Cc1cccc(-c2nc(CNCc3ccccc3Oc3cccnc3)[nH]c2-c2ccc3ncnn3c2)n1 [Compound 54] | 0.1 to 10 nM |

Results, then the molecule that gave them:

| EC50 | Structure (SMILES) |
| --- | --- |
| 10 to 100 nM | Cc1cccc(-c2nc(CN[C@@H](CO)c3ccccc3)[nH]c2-c2ccc3ncnn3c2)n1 [Compound 14] |
| 10 to 100 nM | Cc1cccc(-c2nc(CNCc3cccc(C)c3-c3ccccc3)[nH]c2-c2ccc3ncnn3c2)n1 [Compound 48] |
| 0.1 to 10 nM | Cc1cccc(-c2nc(CNCc3ccccc3Oc3ccccc3)[nH]c2-c2ccc3ncnn3c2)n1 [Compound 53] |
| 0.1 to 10 nM | Cc1cccc(-c2nc(CNCc3ccccc3-c3cccnc3)[nH]c2-c2ccc3ncnn3c2)n1 [Compound 41] |
| 100 to 1000 nM | Cc1cccc(-c2nc(CNCc3ccccc3-c3ccccc3)[nH]c2-c2ccc3c(c2)OCO3)n1 [Compound 71] |
| 0.1 to 10 nM | Cc1cccc(-c2nc(CNCc3ccccc3C)[nH]c2-c2ccc3ncnn3c2)n1 [Compound 21] |
| 0.1 to 10 nM | Cc1cccc(-c2nc(CNCc3ccccc3OC(F)(F)F)[nH]c2-c2ccc3ncnn3c2)n1 [Compound 26] |
| 0.1 to 10 nM | Cc1cccc(-c2nc(CNCc3ccccc3)[nH]c2-c2ccc3ncnn3c2)n1 [Compound 1, 1-(5-([1,2,4]triazolo[1,5-a]pyridin-6-yl)-4-(6-methylpyridin-2-yl)-1H-imidazol-2-yl)-N-benzylmethanamine] |
| 100 to 1000 nM | Cc1cccc(-c2nc(CNCc3ccccc3-c3ccccc3)[nH]c2-c2ccnc3ccccc23)n1 [Compound 69] |
| 100 to 1000 nM | Cc1cccc(-c2nc(CNCc3ccccc3C#N)[nH]c2-c2ccc3ncnn3c2)n1 [Compound 20] |
| 100 to 1000 nM | Cc1cccc(-c2nc(CNCCc3c(F)cccc3F)[nH]c2-c2ccnc3ccccc23)n1 [Compound 79] |
| 100 to 1000 nM | Cc1cccc(-c2nc(CNCc3ccccc3C3CCCCC3)[nH]c2-c2ccc3ncnn3c2)n1 [Compound 43] |
| 10 to 100 nM | Cc1cccc(-c2nc(CNCc3cccc(Oc4ccccc4)c3)[nH]c2-c2ccc3ncnn3c2)n1 [Compound 56] |
| 0.1 to 10 nM | Cc1cccc(-c2nc(CNCCNc3ccccc3)[nH]c2-c2ccc3ncnn3c2)n1 [Compound 66] |
| 100 to 1000 nM | COc1ccc(CNCc2nc(-c3cccc(C)n3)c(-c3ccc4ncnn4c3)[nH]2)cc1 [Compound 8] |
| 10 to 100 nM | Cc1cccc(-c2nc(CNCCc3c(F)cccc3F)[nH]c2-c2ccc3c(c2)OCO3)n1 [Compound 81] |

| EC50 | Structure (SMILES) |
| --- | --- |
| 0.1 to 10 nM | Cc1cccc(-c2nc(CNC(c3ccccc3)c3ccccc3)[nH]c2-c2ccc3ncnn3c2)n1 [Compound 13] |
| 100 to 1000 nM | Cc1cccc(-c2nc(CNCc3ccccc3)[nH]c2-c2ccc3ncccc3n2)n1 [Compound 73] |
| 100 to 1000 nM | Cc1cccc(-c2nc(CNCc3ccc(Cl)c(Cl)c3)[nH]c2-c2ccc3ncnn3c2)n1 [Compound 4] |
| 0.1 to 10 nM | Cc1cccc(-c2nc(CNCc3ccccc3C)[nH]c2-c2ccc3ncccc3n2)n1 [Compound 83] |
| 10 to 100 nM | Cc1cccc(-c2nc(CNCc3ccccc3)[nH]c2-c2ccc3c(c2)OCO3)n1 [Compound 76] |
| 0.1 to 10 nM | Cc1cccc(-c2nc(CNCCc3cccc(F)c3)[nH]c2-c2ccc3ncnn3c2)n1 [Compound 61] |
| 10 to 100 nM | Cc1cccc(-c2nc(CNCc3ccccc3-c3ccccc3)[nH]c2-c2ccc3nccnc3c2)n1 [Compound 72] |
| 0.1 to 10 nM | Cc1cccc(-c2nc(CNCc3ccccc3CC(F)(F)F)[nH]c2-c2ccc3ncnn3c2)n1 [Compound 27] |
| 0.1 to 10 nM | Cc1cccc(-c2nc(CNCc3ccccc3)[nH]c2-c2ccc3ncccc3c2)n1 [Compound 90] |
| 10 to 100 nM | Cc1cccc(-c2nc(CNCc3ccccc3-c3ccncc3)[nH]c2-c2ccc3ncnn3c2)n1 [Compound 42] |
| 0.1 to 10 nM | Cc1cccc(-c2nc(CNCc3ccccc3-c3ccccc3)[nH]c2-c2ccc3ncnn3c2)n1 [Compound 24] |
| 0.1 to 10 nM | Cc1cccc(-c2nc(CNCCc3c(F)cccc3F)[nH]c2-c2ccc3ncccc3n2)n1 [Compound 78] |
| 0.1 to 10 nM | COc1cccc(CNCc2nc(-c3cccc(C)n3)c(-c3ccc4ncnn4c3)[nH]2)c1C [Compound 46] |
| 0.1 to 10 nM | COc1ccccc1CCNCc1nc(-c2cccc(C)n2)c(-c2ccc3nccnc3c2)[nH]1 [Compound 87] |
| 0.1 to 10 nM | Cc1cccc(-c2nc(CNCCN(C)c3ccccc3)[nH]c2-c2ccc3ncnn3c2)n1 [Compound 67] |
| 100 to 1000 nM | Cc1cccc(-c2nc(CNCc3ccccc3-c3ccc(CN)cc3)[nH]c2-c2ccc3ncnn3c2)n1 [Compound 34] |
